What was measured:
Test in all cases: Antibacterial activity (MIC)
Format in all cases: cell-based
[1] = system: Ps aeruginosa Dalgleish 10-^2
E. coli ESS = details: Escherichia coli
E. coli JT4 = details: Escherichia coli
Ps. aeruginosa 10662 = details: Pseudomonas aeruginosa
N catarrhalis 1502 = system: N catarrhalis 1502
Ps. aeruginosa Dalgleish = details: Pseudomonas aeruginosa
[2] = Pseudomonas aeruginosa, Ps. aeruginosa 10^-2

Compound	MIC ([1]; Ps aeruginosa Dalgleish 10-^2) [µg/mL]	MIC (E. coli ESS) [µg/mL]	MIC (E. coli JT4) [µg/mL]	MIC (Ps. aeruginosa 10662) [µg/mL]	MIC (N catarrhalis 1502) [µg/mL]	MIC [1, 2] [µg/mL]	MIC (Ps. aeruginosa Dalgleish) [µg/mL]
CO[C@@]1(NC(=O)C(c2cc(N)c(O)c(O)c2)S(=O)(=O)O)C(=O)N2[C@@H](C(=O)O)C(C)(C)S[C@@H]21 (stereo partly drawn) [Example 1, Disodium 6,β-[R,S-2-(5-amino-3,4-dihydroxyphenyl)-2-sulphoacetamido]-6,α-methoxy penicillanate]	50	5	25	50	< 0.2		
CO[C@@]1(NC(=O)C(c2cc(O)c(O)c([N+](=O)[O-])c2)S(=O)(=O)O)C(=O)N2[C@@H](C(=O)O)C(C)(C)S[C@@H]21 (stereo partly drawn) [Example 2, Disodium 6,β-[R,S-2-(3,4-dihydroxy-5-nitrophenyl)-2-sulphoacetamido]-6,α-methoxypenicillanate]	1	0.2	2.5	5	< 0.02		
CO[C@@]1(NC(=O)[C@@H](c2cc(Cl)c(OC(C)=O)c(OC(C)=O)c2)S(=O)(=O)O)C(=O)N2[C@@H](C(=O)O)C(C)(C)S[C@@H]21 [Example 4v, Disodium 6,β-[R-2-(3-chloro-4,5-diacetoxyphenyl)-2-sulphoacetamido]-6,a-methoxypenicillanate]		0.05	0.25	0.5	< 0.01	0.25	
CO[C@@]1(NC(=O)[C@@H](c2cc(O)c(O)c(Cl)c2)S(=O)(=O)O)C(=O)N2[C@@H](C(=O)O)C(C)(C)S[C@@H]21 [Example 4vi, Disodium 6,B-[R-2-(3-chloro-4,5-dihydroxyphenyl)-2-sulphoacetamido]-6,a-methoxypenicillanate]		0.05	0.5	2.5	< 0.02	0.5	
CO[C@@]1(NC(=O)[C@@H](c2cc(OC(C)=O)c(OC(C)=O)cc2Cl)S(=O)(=O)O)C(=O)N2[C@@H](C(=O)O)C(C)(C)S[C@@H]21 [Example 5, Disodium 6,B-[R-2-(2-chloro-4,5-diacetoxyphenyl)-2-sulphoacetamido]-6,a-methoxypenicillanate]		0.2	0.5	5	< 0.02	1	
CO[C@@]1(NC(=O)[C@@H](c2cc(OC(C)=O)c(OC(C)=O)cc2C)S(=O)(=O)O)C(=O)N2[C@@H](C(=O)O)C(C)(C)S[C@@H]21 [Example 6vi, Disodium 6,β-[R-2-(4,5-diacetoxy-2-methylphenyl)-2-sulphoacetamido]-6,a-methoxypenicillanate]		4	16	16			4
CO[C@@]1(NC(=O)[C@H](c2cc(OC(C)=O)c(OC(C)=O)cc2C)S(=O)(=O)O)C(=O)N2[C@@H](C(=O)O)C(C)(C)S[C@@H]21 [Example 6vii, Disodium 6,β-[S-2-(4,5-diacetoxy-2-methylphenyl)-2-sulphoacetamido]-6,a-methoxypenicillanate]		32	64	128			128
CO[C@@]1(NC(=O)[C@@H](c2cc(C)c(OC(C)=O)c(OC(C)=O)c2)S(=O)(=O)O)C(=O)N2[C@@H](C(=O)O)C(C)(C)S[C@@H]21 [Example 7, Disodium 6,β-[R-2-(4,5-diacetoxy-3-methylphenyl)-2-sulphoacetamido]-6,a-methoxypenicillanate]		0.5	8	16			8
CO[C@@]1(NC(=O)[C@@H](c2cc(OC(C)=O)c(OC(C)=O)c(Cl)c2Cl)S(=O)(=O)O)C(=O)N2[C@@H](C(=O)O)C(C)(C)S[C@@H]21 [Example 8, Disodium 6,β-[R-2-(4,5-diacetoxy-2,3-dichlorophenyl)-2-sulphoacetamido]-6,a-methoxypenicillanate]		0.25	1	2			2

From EP0091302A1, “Beta-lactam derivatives” (BEECHAM GROUP PLC, priority 1982, dated 1983)
